{"source": "patent US20240343699A1", "about": "“DERIVATIVES OF SUBSTITUTED MORPHOLINES AND USES THEREOF” (Supernus Pharmaceuticals, Inc., priority 2023, published 2024)", "key": {"[1]": {"experiment": "Metabolic stability in rat liver S9", "assay_type": "in vitro ADME, Sprague Dawley rat", "details": "1 μM in SD Rat liver S9 fractions", "description": "Incubation Buffer (PBK): 50 mM potassium phosphate buffer was prepared from 1 M potassium phosphate buffer, pH 7.2. […] The dilution of […] was prepared by 90% methanol/10% DMSO, then 10 μM working solutions were prepared by diluting the 0.1 mM intermediates with 50 mM PBK. […] Prior to use, the stock solutions were brought to room temperature and thoroughly mixed. […] Cofactors Solutions: the mixture of cofactors solution was made at 10 mM of NADPH and 10 mM of UDPGA in PBK buffer.\nThe incubation was carried out in 96-well plates. The liver S9 working solutions were added to 96-well plates (80 μL/well) in duplicate. […] Reaction was initiated by adding cofactor mixture 10 μL/well. The plates were incubated at 37° C. in a water bath with shaking. […] The final organic solvent content in the incubation was ≤1%.\nAt specified time points, i.e., 5, 10, 20, 30 and 60 minutes, NCF60 (without adding NADPH (Nicotinamide-adenine dinucleotide phosphate, reduced form) and UDPGA (Uridine 5′-diphosphoglucuronic acid trisodium salt) replaced with PBK buffer reaction was stopped by adding three volumes of stop solution. The time zero (To) samples were prepared by adding three volumes of stop solution to liver S9 samples, followed by addition of test article or control, and cofactor mixture solution 10 μL/well.\nSubsequently, 100 μL of supernatant.\nPositive controls: 7-ethoxycoumarin and 7-hydroxycoumarin."}, "[2]": {"experiment": "Preclinical PK: plasma viloxazine after PO dosing of COMPOUND D or COMPOUND E", "assay_type": "in vivo, mouse", "details": "COMPOUND D PO 19.74 mg/kg, individual mice", "description": "A study was conducted for preclinical PK performance of COMPOUND D and COMPOUND E. Please see below for details on the study, with fasted mice orally dosed with COMPOUND D or COMPOUND E.\nRelevant data are summarized in below tables (ND=Not determined (Parameters not determined due to inadequately defined terminal elimination phase. BQL=Below the lower limit of quantitation (LLOQ). If the adjusted rsq (linear regression coefficient of the concentration value on the terminal phase) is less than 0.9, T1/2 might not be accurately estimated. If the % AUCExtra>20%, AUC0-inf, Cl, MRT0-inf and Vdss might not be accurately estimated. If the % AUMCExtra>20%, MRT0-inf and Vdss might not be accurately estimated. a: Bioavailability (%) was calculated using AUC0-inf (% AUCExtra<20%) or AUC0-last (% AUCExtra>20%) with nominal dose)"}, "Enzyme and uptake assays": {"experiment": "Enzyme and uptake assays", "assay_type": "biochemical", "details": "human recombinant; [3H]NE incorporation into cells; read-out: IC50, Norepinephrine transporter uptake (h)", "description": "A study was conducted to test 5 compounds in cellular and nuclear receptor functional and enzyme and uptake assays.\nThe results are expressed as a percent of control specific activity\nand as a percent inhibition of control specific activity\nThe IC50 values (concentration causing a half-maximal inhibition of control specific activity), EC50 values (concentration producing a half-maximal increase in control basal activity), and Hill coefficients (nH) were determined by non-linear regression analysis of the inhibition/concentration-response curves generated with mean replicate values using Hill equation curve fitting\nwhere Y=specific activity, A=left asymptote of the curve, D=right asymptote of the curve, C=compound concentration, C50=IC50 or EC50, and nH=slope factor. This analysis was performed using software developed at Cerep (Hill software) and validated by comparison with data generated by the commercial software SigmaPlot® 4.0 for Windows® (© 1997 by SPSS Inc.).\nIn Vitro Pharmacology. Results showing an inhibition (or stimulation for assays run in basal conditions) higher than 50% were considered to represent significant effects of the test compounds. Results showing an inhibition (or stimulation) between 25% and 50% are indicative of weak to moderate effects. Results showing an inhibition (or stimulation) lower than 25% were not considered significant and mostly attributable to variability of the signal around the control level. […]"}, "[3]": {"assay_type": "in vitro ADME, mouse", "details": "mice Blood, wet ice bath, 5% Paraoxon ethyl as stabilizer; for % stability: 0.5 hr"}, "[4]": {"experiment": "Preclinical PK after intraperitoneal dosing of COMPOUND D, COMPOUND B and viloxazine", "assay_type": "in vivo, mouse", "details": "COMPOUND D IP 10.978 mg/kg; for Cmax: read-out: Cmax, plasma COMPOUND D"}}, "note": "“And” between values parts separate entries of the source, which are not always exact repeats. Equal entries are not always repeated. Where two headings read alike, the source gives them in different places."}
{"compound": "CCOc1ccccc1OCC1CN(C(=O)OC(C)OC(=O)[C@H](N)C(C)C)CCO1", "note": "(stereo partly drawn) [COMPOUND D]", "values": [{"measurement": "% Remaining at 60 min", "setting": "[1]", "result": 0.48, "unit": "%"}, {"measurement": "half-life at 1 μM", "setting": "[1]; Sprague-Dawley, pH 7.2", "result": 9.4, "unit": "min"}, {"measurement": "microsomal CLint at 1 μM", "setting": "[1]; Sprague-Dawley, pH 7.2, read-out: CLint(mic.)", "result": 148, "unit": "µL/min/mg"}, {"measurement": "Plasma concentration of Viloxazine", "setting": "[2]; 8.00 h", "result": "BQL"}, {"measurement": "Plasma concentration of Viloxazine", "setting": "[2]; 24.0 h", "result": "BQL"}, {"measurement": "IC50", "setting": "Enzyme and uptake assays", "result": 870, "unit": "nM"}, {"measurement": "Mean peak area", "setting": "[3]; HQC, 0 hr sample", "result": 1.315}, {"measurement": "% stability", "setting": "[3]; HQC", "result": 52, "unit": "%"}, {"measurement": "Mean peak area", "setting": "[3]; HQC, 0.5 hr sample", "result": 0.682}, {"measurement": "Mean peak area", "setting": "[3]; LQC, 0 hr sample", "result": 0.00479}, {"measurement": "% stability", "setting": "[3]; LQC", "result": 54.7, "unit": "%"}, {"measurement": "Mean peak area", "setting": "[3]; LQC, 0.5 hr sample", "result": 0.00262}, {"measurement": "concentration at 0.25 h", "setting": "[4]; CD-1, mouse, plasma, ip, 10.978 mg/kg, 0.250 h, individual mice, read-out: Plasma concentration of COMPOUND D", "result": 3.44, "unit": "ng/mL"}, {"measurement": "concentration at 0.5 h", "setting": "[4]; CD-1, mouse, plasma, ip, 10.978 mg/kg, 0.500 h, individual mice, read-out: Plasma concentration of COMPOUND D", "result": 1.12, "unit": "ng/mL"}, {"measurement": "concentration at 1 h", "setting": "[4]; CD-1, mouse, plasma, ip, 10.978 mg/kg, 1.00 h, individual mice", "result": 5.74, "unit": "ng/mL"}, {"measurement": "concentration at 24 h", "setting": "[4]; CD-1, mouse, plasma, ip, 10.978 mg/kg, 24.0 h, individual mice", "result": 3.48, "unit": "ng/mL"}, {"measurement": "Cmax", "setting": "[4]; CD-1, mouse, plasma, ip, 10.978 mg/kg, individual mice", "result": 5.74, "unit": "ng/mL"}, {"measurement": "AUC(0-t)", "setting": "[4]; CD-1, mouse, plasma, ip, 10.978 mg/kg, mean, read-out: AUC0-last, plasma COMPOUND D", "result": 42.3, "unit": "ng·h/mL"}, {"measurement": "Cmax", "setting": "[4]; CD-1, mouse, plasma, ip, 10.978 mg/kg, mean", "result": 4.61, "unit": "ng/mL"}, {"measurement": "MRT last", "setting": "[4]; CD-1, mouse, plasma, ip, 10.978 mg/kg, mean, read-out: MRT0-last, plasma COMPOUND D", "result": 6.5, "unit": "h"}, {"measurement": "Tmax", "setting": "[4]; CD-1, mouse, plasma, ip, 10.978 mg/kg, mean, read-out: Tmax, plasma COMPOUND D", "result": 12.5, "unit": "h"}, {"measurement": "Plasma concentration of COMPOUND D", "setting": "[4]; 0.250 h, individual mice, 10.978 mg/kg", "result": "BQL"}, {"measurement": "Plasma concentration of COMPOUND D", "setting": "[4]; 0.500 h, individual mice, 10.978 mg/kg", "result": "BQL"}, {"measurement": "Plasma concentration of COMPOUND D", "setting": "[4]; 1.00 h, individual mice, 10.978 mg/kg", "result": "BQL"}, {"measurement": "Plasma concentration of COMPOUND D", "setting": "[4]; 2.00 h, individual mice", "result": "BQL"}, {"measurement": "Plasma concentration of COMPOUND D", "setting": "[4]; 4.00 h, individual mice", "result": "BQL"}, {"measurement": "Plasma concentration of COMPOUND D", "setting": "[4]; 8.00 h, individual mice", "result": "BQL"}, {"measurement": "Plasma concentration of Viloxazine", "setting": "[4]; 8.00 h, individual mice, 10.978 mg/kg", "result": "BQL"}, {"measurement": "Plasma concentration of Viloxazine", "setting": "[4]; 24.0 h, individual mice", "result": "BQL"}, {"measurement": "Plasma concentration of COMPOUND D", "setting": "[4]; 24.0 h, individual mice, 10.978 mg/kg", "result": "BQL"}, {"measurement": "AUC0-last, plasma COMPOUND D", "setting": "[4]; individual mice, 10.978 mg/kg", "result": "2.00 ng·h/mL and 82.6 ng·h/mL"}, {"measurement": "Cmax, plasma COMPOUND D", "setting": "[4]; individual mice, 10.978 mg/kg", "result": 3.48, "unit": "ng/mL"}, {"measurement": "MRT0-last, plasma COMPOUND D", "setting": "[4]; individual mice, 10.978 mg/kg", "result": "0.860 h and 12.1 h"}, {"measurement": "Tlast, plasma COMPOUND D", "setting": "[4]; individual mice, 10.978 mg/kg", "result": "1.00 h and 24.0 h"}, {"measurement": "Tmax, plasma COMPOUND D", "setting": "[4]; individual mice, 10.978 mg/kg", "result": "1.00 h and 24.0 h"}, {"measurement": "Tlast, plasma COMPOUND D", "setting": "[4]; mean", "result": 12.5, "unit": "h"}]}
